± gives the standard deviation of the averaged measurements.
Experiments:
[1] = compound: COc1cc2ncnc(Nc3ccc(F)c(Cl)c3)c2cc1OCCCN1CCOCC1 [GEFITINIB]; experiment: area under dose-response curve of surviving fraction (unscaled, Aref=0) (surviving fraction x log10(nM)); higher = more resistant; conditions: exposure time: 5 days; dose range 0.5-1000 nM
Summary of the method: (§1)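 Surviving fractions were fitted by 3-parameter logistic regression in the drc R package to give dose-response survival curves. They came from tumour cell lines treated for five days with eight inhibitor concentrations from 0.5 to 1000 nM and read by CellTiter-Glo luminescence against DMSO-only wells. The area under the curve is the unscaled activity area. It was calculated over log10 dose with Aref = 0.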

[2] = compound: COCC[n+]1c2c(n(Cc3cnccn3)c1C)C(=O)c1ccccc1C2=O [YM155]; experiment: as above; conditions: exposure time: 5 days; dose range 0.5-1000 nM
Summary of the method: as §1

[3] = compound: CC(=O)NCC(=O)N1[C@@H]2CC[C@H]1c1ccc(Nc3ncc(C(F)(F)F)c(NC4CCC4)n3)cc12; experiment: as above; conditions: exposure time: 5 days; dose range 0.5-1000 nM
Summary of the method: as §1

[4] = compound: CC[C@@]1(O)C(=O)OCc2c1cc1n(c2=O)Cc2cc3ccccc3nc2-1 [CAMPTOTHECIN]; experiment: as above; conditions: exposure time: 5 days; dose range 0.5-1000 nM
Summary of the method: as §1

[5] = compound: O=C(O)C1(C(=O)O)CCC1.[NH2-].[NH2-].[Pt+2] [CARBOPLATIN]; experiment: as above; conditions: exposure time: 5 days; dose range 0.5-1000 nM
Summary of the method: as §1

[6] = compound: CC(=O)O[C@H]1C(=O)[C@@]2(C)[C@H]([C@H](OC(=O)c3ccccc3)[C@]3(O)C[C@H](OC(=O)[C@H](O)[C@@H](NC(=O)c4ccccc4)c4ccccc4)C(C)=C1C3(C)C)[C@]1(OC(C)=O)CO[C@@H]1C[C@@H]2O [PACLITAXEL]; experiment: as above; conditions: exposure time: 5 days; dose range 0.5-1000 nM
Summary of the method: as §1

[7] = compound: Cc1ccc(-c2cc(C(F)(F)F)nn2-c2ccc(S(N)(=O)=O)cc2)cc1 [CELECOXIB]; experiment: as above; conditions: exposure time: 5 days; dose range 0.5-1000 nM
Summary of the method: as §1

[8] = compound: CC(=O)c1c(C)c2cnc(Nc3ccc(N4CCNCC4)cn3)nc2n(C2CCCC2)c1=O; experiment: as above; conditions: exposure time: 5 days; dose range 0.5-1000 nM
Summary of the method: as §1

[9] = compound: T1, C[C@]1(O)C[C@@H](c2nc(-c3ccc4ccc(-c5ccccc5)nc4c3)c3c(N)nccn32)C1 [OSI-906]; experiment: surviving fraction relative to DMSO-only wells; higher = less growth inhibition; conditions: exposure time: 5 days
Summary of the method: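 Inhibitors at 0.5, 1, 5, 10, 50, 100, 500 and 1000 nM were applied continuously for five days to tumour cell lines seeded in log phase at 250–500 cells per well in 384-well plates 24 hours earlier. Viability was measured by CellTiter-Glo luminescence and expressed as surviving fraction relative to the median of DMSO-only wells. Luminescence was taken after 10 minutes at room temperature.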

[10] = compound: T1, OSI-906; experiment: area under dose-response curve of surviving fraction (unscaled, Aref=0) (surviving fraction x log10(nM)); higher = more resistant; conditions: exposure time: 5 days; dose range 0.5-1000 nM
Summary of the method: as §1

| Test System | area under dose-response curve [1] | area under dose-response curve [2] | area under dose-response curve [3] | area under dose-response curve [4] | area under dose-response curve [5] | area under dose-response curve [6] | area under dose-response curve [7] | area under dose-response curve [8] | surviving fraction ([9]; 0.5 nM) | surviving fraction ([9]; 1 nM) | surviving fraction ([9]; 5 nM) | surviving fraction ([9]; 10 nM) | surviving fraction ([9]; 50 nM) | surviving fraction ([9]; 100 nM) | surviving fraction ([9]; 500 nM) | surviving fraction ([9]; 1000 nM) | area under dose-response curve [10] |
| --- | --- | --- | --- | --- | --- | --- | --- | --- | --- | --- | --- | --- | --- | --- | --- | --- | --- |
| HCC1395 BREAST | 3.91 | 2.28 | 3.19 | 2.09 | 3.87 | 1.76 | 4.09 | 3.96 | 0.851 ± 0.028 | 0.962 ± 0.13 | 0.977 ± 0.095 | 0.949 ± 0.027 | 1.04 ± 0.014 | 1.12 ± 0.13 | 0.847 ± 0.14 | 0.986 ± 0.043 | – |
| RDES SOFT TISSUE | 3.69 | 1.4 | 2.44 | 0.518 | 3.72 | 1.03 | 3.85 | – | 0.836 ± 0.081 | 0.818 ± 0.12 | 0.77 ± 0.14 | 0.733 ± 0.18 | 1.1 ± 0.019 | 1.05 ± 0.086 | 0.84 ± 0.015 | 0.555 ± 0.032 | 2.76 |
| CADOES1 SOFT TISSUE | 3.02 | 3.1 | 2.12 | 0.642 | – | 1.87 | 2.95 | 2.79 | 1.025 ± 0.0076 | 1.04 ± 0.024 | 0.957 ± 0.096 | 1.02 ± 0.036 | 0.847 ± 0.14 | 0.886 ± 0.1 | 0.871 ± 0.059 | 0.962 ± 0.023 | 3.12 |
| ZR751 BREAST | – | 1.2 | 2.96 | 1.47 | 3.96 | 1.6 | 3.57 | 3.47 | 0.893 ± 0.058 | 0.857 ± 0.08 | 0.879 ± 0.1 | 0.847 ± 0.069 | 0.819 ± 0.091 | 0.795 ± 0.076 | 0.634 ± 0.08 | 0.462 ± 0.022 | 2.62 |
| SCC47 HEADNECK | 3 | 1.31 | 2.87 | 2.11 | – | 1.02 | 3.63 | – | 0.976 ± 0.025 | 0.952 ± 0.046 | 1.04 ± 0.069 | 1.02 ± 0.12 | 1.091 ± 0.0056 | 1.07 ± 0.062 | 1 ± 0.011 | 1.04 ± 0.11 | 3.41 |
| 143B BONE | – | – | 2.93 | – | – | 1.1 | – | 3.53 | 1.02 ± 0.048 | 0.972 ± 0.028 | 1.07 ± 0.071 | 1.04 ± 0.05 | 0.959 ± 0.083 | 0.99 ± 0.011 | 0.9825 ± 0.0078 | 0.989 ± 0.023 | – |
| CCK81 LARGE INTESTINE | 1.85 | 2.51 | – | 1.63 | 2.67 | – | 2.59 | – | 0.782 ± 0.2 | 0.815 ± 0.089 | 0.87 ± 0.051 | 0.784 ± 0.036 | 0.726 ± 0.17 | 0.668 ± 0.13 | 0.414 ± 0.13 | 0.327 ± 0.058 | 2.3 |
| SG32 HEADNECK | 4.01 | 0.928 | 2.57 | 0.888 | 3.86 | 1.08 | 4.18 | – | 0.714 ± 0.15 | 0.689 ± 0.0095 | 0.767 ± 0.13 | 0.632 ± 0.057 | 0.845 ± 0.021 | 0.793 ± 0.071 | 0.596 ± 0.084 | 0.498 ± 0.048 | 2.28 |
| LM7 BONE | 3.49 | 0.956 | 2.54 | 0.895 | – | 0.746 | 3.39 | 3.43 | 0.743 ± 0.037 | 0.717 ± 0.062 | 0.801 ± 0.074 | 0.747 ± 0.041 | 0.867 ± 0.011 | 0.771 ± 0.048 | 0.48 ± 0.023 | 0.435 ± 0.025 | 2.32 |
